According to PubChem BioAssay (NCI):
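How tested: cells in 96-well plates exposed to compound for 48 hours at five concentrations. TGI: concentration producing complete growth inhibition.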

Legend:
Assay in all cases: inhibition of tumour cell growth, NCI panel, 48 h
SK-MEL-2 melanoma = test system: SK-MEL-2 melanoma
T-47D breast = test system: T-47D breast
SF-268 CNS = test system: SF-268 CNS
786-0 renal = test system: 786-0 renal
PC-3 prostate = test system: PC-3 prostate
ACHN renal = test system: ACHN renal
OVCAR-5 ovarian = test system: OVCAR-5 ovarian
RXF 393 renal = test system: RXF 393 renal
COLO 205 colon = test system: COLO 205 colon
NCI-H522 lung = test system: NCI-H522 lung
KM12 colon = test system: KM12 colon
IGROV1 ovarian = test system: IGROV1 ovarian
BT-549 breast = test system: BT-549 breast
EKVX NSCLC = test system: EKVX NSCLC
HOP-92 NSCLC = test system: HOP-92 NSCLC
UO-31 renal = test system: UO-31 renal
M14 melanoma = test system: M14 melanoma
NCI-H226 lung = test system: NCI-H226 lung
OVCAR-8 ovarian = test system: OVCAR-8 ovarian
CAKI-1 renal = test system: CAKI-1 renal
OVCAR-4 ovarian = test system: OVCAR-4 ovarian
MDA-MB-435 = test system: MDA-MB-435
MDA-MB-231 breast = test system: MDA-MB-231 breast
UACC-62 melanoma = test system: UACC-62 melanoma
SNB-19 CNS = test system: SNB-19 CNS
SK-MEL-28 melanoma = test system: SK-MEL-28 melanoma
HCT-15 colon = test system: HCT-15 colon
SNB-75 CNS = test system: SNB-75 CNS
MALME-3M melanoma = test system: MALME-3M melanoma
CCRF-CEM leukemia = test system: CCRF-CEM leukemia
SW-620 colon = test system: SW-620 colon
U251 CNS = test system: U251 CNS
SK-OV-3 ovarian = test system: SK-OV-3 ovarian
MOLT-4 leukemia = test system: MOLT-4 leukemia
HT29 colon = test system: HT29 colon
DU-145 prostate = test system: DU-145 prostate
HL-60(TB) leukemia = test system: HL-60(TB) leukemia
SR leukemia = test system: SR leukemia
NCI-H460 lung = test system: NCI-H460 lung
MDA-N = test system: MDA-N
NCI-H23 lung = test system: NCI-H23 lung
LOX IMVI melanoma = test system: LOX IMVI melanoma
OVCAR-3 ovarian = test system: OVCAR-3 ovarian
MCF7 breast = test system: MCF7 breast
TK-10 renal = test system: TK-10 renal
HOP-62 NSCLC = test system: HOP-62 NSCLC
NCI/ADR-RES ovarian = test system: NCI/ADR-RES ovarian
SK-MEL-5 melanoma = test system: SK-MEL-5 melanoma
A549 NSCLC = test system: A549 NSCLC
SF-539 CNS = test system: SF-539 CNS
HCT-116 colon = test system: HCT-116 colon
HCC-2998 colon = test system: HCC-2998 colon
SN12C renal = test system: SN12C renal
SF-295 CNS = test system: SF-295 CNS
HS 578T breast = test system: HS 578T breast
K-562 leukemia = test system: K-562 leukemia

**Q.** Which TGI (SK-MEL-2 melanoma) does the source give for `CC(=O)Oc1c2c(c3n(c1=O)CCCC3)C(=O)N(c1ccccc1)C2=O` here?
**A.** > 100 µM

**Q.** And the TGI (T-47D breast)?
**A.** > 100 µM

**Q.** What about the TGI (SF-268 CNS) of the same compound?
**A.** > 100 µM

**Q.** What about the TGI (786-0 renal) of the same compound?
**A.** > 100 µM

**Q.** What about the TGI (PC-3 prostate) of the same compound?
**A.** > 100 µM

**Q.** What about the TGI (ACHN renal) of the same compound?
**A.** > 100 µM

**Q.** And the TGI (OVCAR-5 ovarian)?
**A.** > 100 µM

**Q.** And the TGI (RXF 393 renal)?
**A.** > 100 µM

**Q.** What about the TGI (COLO 205 colon) of the same compound?
**A.** > 100 µM

**Q.** What about the TGI (NCI-H522 lung) of the same compound?
**A.** > 100 µM

**Q.** What about the TGI (KM12 colon) of the same compound?
**A.** > 100 µM

**Q.** And the TGI (IGROV1 ovarian)?
**A.** > 100 µM

**Q.** And the TGI (BT-549 breast)?
**A.** > 100 µM

**Q.** And the TGI (EKVX NSCLC)?
**A.** > 100 µM

**Q.** What about the TGI (HOP-92 NSCLC) of the same compound?
**A.** > 100 µM

**Q.** And the TGI (UO-31 renal)?
**A.** > 100 µM

**Q.** And the TGI (M14 melanoma)?
**A.** > 100 µM

**Q.** And the TGI (NCI-H226 lung)?
**A.** > 100 µM

**Q.** And the TGI (OVCAR-8 ovarian)?
**A.** > 100 µM

**Q.** What about the TGI (CAKI-1 renal) of the same compound?
**A.** > 100 µM

**Q.** What about the TGI (OVCAR-4 ovarian) of the same compound?
**A.** > 100 µM

**Q.** And the TGI (MDA-MB-435)?
**A.** > 100 µM

**Q.** And the TGI (MDA-MB-231 breast)?
**A.** > 100 µM

**Q.** What about the TGI (UACC-62 melanoma) of the same compound?
**A.** > 100 µM

**Q.** And the TGI (SNB-19 CNS)?
**A.** > 100 µM

**Q.** And the TGI (SK-MEL-28 melanoma)?
**A.** > 100 µM

**Q.** What about the TGI (HCT-15 colon) of the same compound?
**A.** > 100 µM

**Q.** What about the TGI (SNB-75 CNS) of the same compound?
**A.** > 100 µM

**Q.** And the TGI (MALME-3M melanoma)?
**A.** > 100 µM

**Q.** And the TGI (CCRF-CEM leukemia)?
**A.** > 100 µM

**Q.** What about the TGI (SW-620 colon) of the same compound?
**A.** > 100 µM

**Q.** What about the TGI (U251 CNS) of the same compound?
**A.** > 100 µM

**Q.** And the TGI (SK-OV-3 ovarian)?
**A.** > 100 µM

**Q.** And the TGI (MOLT-4 leukemia)?
**A.** > 100 µM

**Q.** What about the TGI (HT29 colon) of the same compound?
**A.** > 100 µM

**Q.** What about the TGI (DU-145 prostate) of the same compound?
**A.** > 100 µM

**Q.** What about the TGI (HL-60(TB) leukemia) of the same compound?
**A.** > 100 µM

**Q.** And the TGI (SR leukemia)?
**A.** > 100 µM

**Q.** And the TGI (NCI-H460 lung)?
**A.** > 100 µM

**Q.** And the TGI (MDA-N)?
**A.** > 100 µM

**Q.** And the TGI (NCI-H23 lung)?
**A.** > 100 µM

**Q.** What about the TGI (LOX IMVI melanoma) of the same compound?
**A.** > 100 µM

**Q.** And the TGI (OVCAR-3 ovarian)?
**A.** > 100 µM

**Q.** And the TGI (MCF7 breast)?
**A.** > 100 µM

**Q.** What about the TGI (TK-10 renal) of the same compound?
**A.** > 100 µM

**Q.** What about the TGI (HOP-62 NSCLC) of the same compound?
**A.** > 100 µM

**Q.** And the TGI (NCI/ADR-RES ovarian)?
**A.** > 100 µM

**Q.** And the TGI (SK-MEL-5 melanoma)?
**A.** > 100 µM

**Q.** What about the TGI (A549 NSCLC) of the same compound?
**A.** > 100 µM

**Q.** And the TGI (SF-539 CNS)?
**A.** > 100 µM

**Q.** And the TGI (HCT-116 colon)?
**A.** > 100 µM

**Q.** And the TGI (HCC-2998 colon)?
**A.** 97.2 µM

**Q.** What about the TGI (SN12C renal) of the same compound?
**A.** > 100 µM

**Q.** What about the TGI (SF-295 CNS) of the same compound?
**A.** > 100 µM

**Q.** And the TGI (HS 578T breast)?
**A.** > 100 µM

**Q.** And the TGI (K-562 leukemia)?
**A.** > 100 µM
